Results published in paper PMC8706998, “Lipid Nanocarriers-Loaded Nanocomposite as a Suitable Platform to Release Antibacterial and Antioxidant Agents for Immediate Dental Implant Placement Restorative Treatment” (Pharmaceutics, 2021).

Experiment: Ex vivo permeation/penetration experiments in Franz-type cells
Assay type: in vitro ADME, pig
Conditions: from 30 mg BioQ-CPX
Procedure: Tissue specimens were obtained from the vestibular area of the retromolar trigone derived from 6–8-month-old pigs supplied by the Municipal Slaughterhouse of Villabate (Palermo, Italy) since withdrawn from animals intended for human consumption. By a refrigerated transport box, the specimens were immediately transferred to the laboratory within 1 h from animal sacrifice and surgically treated to remove both adipose and connective tissues in excess. Afterward, they were dipped for 30 min in a 5% THR (w/v) isotonic solution and then stored at −80 °C for a minimum period of one week. Before the permeation/penetration experiments, tissue samples were accurately washed to remove the cryoprotectant, and, subsequently, thermal shocked to obtain the buccal mucosa. Briefly, tissue samples were dipped for 30 s in a pre-warmed (70 °C) isotonic solution, and then the mucosa was carefully peeled off from the connective tissue, obtaining the heat-separated epithelium along with the intact basal lamina. Finally, it was equilibrated in an isotonic solution for 3 h by replacing the medium every 15 min to remove all the biological matter, which could affect the analysis, before use.
The ex vivo permeation/penetration studies were carried out using vertical Franz-type diffusion cells. Briefly, appropriate sections of buccal mucosa were mounted between the donor and the acceptor chambers filled with 1 mL of citrate buffer pH 5.5 and 15 mL of citrate buffer pH 5.5 amended with acetic acid 0.1% (v/v), Acys 0.002% (w/v), and β-CD 3% (w/v). The whole system was equilibrated at 37 ± 0.5 °C for 30 min. Afterward, the medium was removed from the donor compartment, promptly replaced with 30 mg of BioQ-CPX, and soaked with 0.2 mL of citrate buffer pH 5.5. Every 30 min, aliquots (0.5 mL) were withdrawn from the acceptor chamber and immediately replaced with the same volume of fresh acceptor fluid to maintain the sink conditions. Experiments were carried out at 37 ± 0.5 °C in the dark and under constant stirring, being stopped at different time points ranging from 1 to 6 h. The amount of permeated QRC and CPX were quantified by UV–Vis analysis. Data are reported as means ± SE (n = 6).
Briefly, the mucosa was dipped into 2 mL of methanol and warmed up to 60 °C. The extraction procedure was performed twice, and the collected extraction liquors were transferred into a 10 mL flask and brought to volume with fresh methanol. Thus, QRC and CPX amounts were determined by UV–Vis analysis. Results are reported as means ± SE.

## O=c1c(O)c(-c2ccc(O)c(O)c2)oc2cc(O)cc(O)c12 [QRC, quercetin]
After 5 h
  maximum amount accumulated into the mucosa: about 5 % of drugs dose
First hour from application
  amount accumulated into the mucosa: about 4 % of dose
